Where a name gives a salt, the structure may show the parent alone. Read-outs that look alike come from different tables or passages of the source.
Experiments:
CCK-B = biological target: T1, CCK-B (Cavia porcellus, UniProt H0VZC5); test: displacement of specific 125I-CCK from guinea pig brain (CCK-B receptor binding)
T1 construct: guinea pig brain (CCK-B); from tissue; host or cells: guinea pig brain
T1 sequence (H0VZC5 1-426): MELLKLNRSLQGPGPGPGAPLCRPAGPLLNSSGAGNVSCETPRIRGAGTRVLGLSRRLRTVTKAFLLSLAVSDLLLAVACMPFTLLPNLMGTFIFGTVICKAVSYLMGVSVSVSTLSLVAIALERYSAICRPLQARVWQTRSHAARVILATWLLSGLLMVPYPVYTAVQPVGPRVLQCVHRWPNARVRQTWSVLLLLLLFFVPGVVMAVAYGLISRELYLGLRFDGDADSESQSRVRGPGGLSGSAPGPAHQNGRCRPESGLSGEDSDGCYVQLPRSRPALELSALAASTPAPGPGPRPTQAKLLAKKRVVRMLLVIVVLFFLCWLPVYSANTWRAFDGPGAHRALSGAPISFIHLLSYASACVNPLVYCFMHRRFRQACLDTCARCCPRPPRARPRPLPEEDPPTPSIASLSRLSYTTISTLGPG
Protocol: (§1) The CCK-A and CCK-B antagonising activity of the compounds described herein was evaluated using the assays described in published European patent application no. 0514133. The method essentially involves determining the concentration of the test compound required to displace 50% of the specific ^125 I-CCK from rat pancreas (CCK-A) or guinea pig brain (CCK-B). The data in Table 1 were obtained for compounds of the Examples.

CCK-A = biological target: T2, CCK-A (Rattus norvegicus, UniProt P30551); test: biochemical; format: binding
T2 sequence (P30551 1-444): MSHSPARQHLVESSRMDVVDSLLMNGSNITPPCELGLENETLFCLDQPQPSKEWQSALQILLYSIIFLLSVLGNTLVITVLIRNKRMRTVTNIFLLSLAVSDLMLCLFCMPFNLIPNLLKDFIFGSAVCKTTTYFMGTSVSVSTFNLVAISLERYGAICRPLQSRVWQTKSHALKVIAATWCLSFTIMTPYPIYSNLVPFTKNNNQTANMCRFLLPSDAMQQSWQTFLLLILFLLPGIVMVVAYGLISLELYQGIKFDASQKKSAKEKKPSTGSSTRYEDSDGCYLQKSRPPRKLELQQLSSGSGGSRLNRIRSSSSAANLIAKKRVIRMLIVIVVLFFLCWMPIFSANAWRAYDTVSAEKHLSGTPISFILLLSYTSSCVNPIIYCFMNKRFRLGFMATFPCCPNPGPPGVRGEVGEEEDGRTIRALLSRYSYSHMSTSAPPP
Protocol: as §1, with “(CCK-B).” for “(CCK-B). The data in Table 1 were obtained for compounds of the Examples.”

[1] = read-out: CCK RECEPTOR BINDING RESULTS IC50 125I-CCK Brain
[2] = rat pancreas (CCK-A), 125I-CCK, read-out: CCK RECEPTOR BINDING RESULTS IC50 125I-CCK Pancreas
[3] = CCK RECEPTOR BINDING RESULTS IC50 125I-CCK Brain
[4] = CCK RECEPTOR BINDING RESULTS IC50 125I-CCK Pancreas, rat pancreas (CCK-A), 125I-CCK
[5] = read-out: CCK RECEPTOR BINDING RESULTS IC50 125I-CCK Pancreas

SMILES | IC50 (CCK-B; [1]) [nM] | IC50 (CCK-A; [2]) [nM] | IC50 (CCK-A; [5]) [nM] | IC50 (CCK-B; [3]) [nM] | IC50 (CCK-A; [4]) [nM]
CN1C(=O)C(NC(=O)Nc2ccc3c(c2)CCC3)N=C(N2CCC(C)(C)CC2)c2ccccc21 (single isomer, unassigned) [5 (enantiomer B)] | 14.8 | 7.8 |  |  | 
Cc1cccc(NC(=O)NC2N=C(N3CCC(C)CC3)c3ccccc3N(C)C2=O)c1 (single isomer, unassigned) [8 (enantiomer A)] | 0.35 | 981 |  |  | 
Cc1cccc(NC(=O)NC2N=C(N3CCC(C)CC3)c3ccccc3N(C)C2=O)c1 (single isomer, unassigned) [8 (enantiomer B)] | 23.2 | 2.61 |  |  | 
Cc1cccc(NC(=O)NC2N=C(N3CCC(C)(C)CC3)c3ccccc3N(C)C2=O)c1 (single isomer, unassigned) [10 (enantiomer A)] | 0.76 | 421 |  |  | 
Cc1cccc(NC(=O)NC2N=C(N3CCC(C)(C)CC3)c3ccccc3N(C)C2=O)c1 (single isomer, unassigned) [10 (enantiomer B)] | 12.6 | 0.42 |  |  | 
COC1CCN(C2=NC(NC(=O)Nc3cccc(C)c3)C(=O)N(C)c3ccccc32)CC1 (single isomer, unassigned) [14 (enantiomer A)] | 11.6 | 3220 |  |  | 
Cc1cccc(NC(=O)NC2N=C(N3CC4CCC(CC4)C3)c3ccccc3N(C)C2=O)c1 (single isomer, unassigned; (+)) [Example 34, (+)-N-[5-(3-Azabicyclo[3,2,2]nonan-3-yl)-2,3-dihydro-1-methyl-2-oxo-1H-1,4-benzodiazepin-3-yl]-N'-[3-methylphenyl]urea Hydrochloride] |  |  |  | 26.7 | 6.46
CN1C(=O)C(NC(=O)Nc2cccc(F)c2)N=C(N2CC3CCC(CC3)C2)c2ccccc21 (single isomer, unassigned; (+)) [Example 37, (+)-N-[5-(3-Azabicyclo[3,2,2]nonan-3-yl)-2,3-dihydro-1-methyl-2-oxo-1H-1,4-benzodiazepin-3-yl]-N'-[3-fluorophenyl]urea Hydrochloride] |  |  |  | 144 | 9
Cc1ccc(NC(=O)NC2N=C(N3CC4CCC(CC4)C3)c3ccccc3N(C)C2=O)cc1F (single isomer, unassigned; (+)) [Example 46, (+)-N-[5-(3-Azabicyclo[3,2,2]nonan-3-yl)-2,3-dihydro-1-methyl-2-oxo-1H-1,4-benzodiazepin-3-yl]-N'-[3-fluoro-4-methylphenyl]urea Hydrochloride] |  |  |  | 20.1 | 23.7
CN1C(=O)C(NC(=O)Nc2cccc(I)c2)N=C(N2CC3CCC(CC3)C2)c2ccccc21 (single isomer, unassigned; (+)) [Example 49, (+)-N-[5-(3-Azabicyclo[3,2,2]nonan-3-yl)-2,3-dihydro-1-methyl-2-oxo-1H-1,4-benzodiazepin-3-yl]-N'-[3-iodophenyl]urea] |  | 9.65 |  | 82.7 | 
Cc1cc(NC(=O)NC2N=C(N3CC4CCC(CC4)C3)c3ccccc3N(C)C2=O)ccc1F (single isomer, unassigned; (+)) [Example 54, (+)-N-[5-(3-Azabicyclo[3,2,2]nonan-3-yl)-2,3-dihydro-1-methyl-2-oxo-1H-1,4-benzodiazepin-3-yl]-N'-[4-fluoro-3-methylphenyl]urea Hydrochloride] |  |  |  | 68 | 8.4
CN1C(=O)C(NC(=O)Nc2cccc(C(F)(F)F)c2)N=C(N2CC3CCC(CC3)C2)c2ccccc21 (single isomer, unassigned; (+)) [Example 56, (+)-N-[5-(3-Azabicyclo[3,2,2]nonan-3-yl)-2,3-dihydro-1-methyl-2-oxo-1H-1,4-benzodiazepin-3-yl]-N'-[3-trifluoromethylphenyl]urea Hydrochloride] | 47 | 62 |  |  | 

More lines, main results first:

IC50 (CCK-B; [1]) [nM] | IC50 (CCK-A; [2]) [nM] | IC50 (CCK-A; [5]) [nM] | SMILES | IC50 (CCK-B; [3]) [nM] | IC50 (CCK-A; [4]) [nM]
174 | 11.4 |  | COC1CCN(C2=NC(NC(=O)Nc3cccc(C)c3)C(=O)N(C)c3ccccc32)CC1 (single isomer, unassigned) [14 (enantiomer B)] |  | 
3.47 | 1900 |  | C[C@@H]1CCC[C@H](C)N1C1=NC(NC(=O)Nc2ccc3c(c2)CCC3)C(=O)N(C)c2ccccc21 (single isomer, unassigned) [15 (enantiomer A)] |  | 
75 | 163 |  | C[C@@H]1CCC[C@H](C)N1C1=NC(NC(=O)Nc2ccc3c(c2)CCC3)C(=O)N(C)c2ccccc21 (single isomer, unassigned) [15 (enantiomer B)] |  | 
0.64 | 765 |  | CCCN1C(=O)C(NC(=O)Nc2cccc(C)c2)N=C(N2CCC(C)CC2)c2ccccc21 (single isomer, unassigned) [18 (enantiomer A)] |  | 
1.52 | 3290 |  | Cc1cccc(NC(=O)NC2N=C(N3CCC(C(F)(F)F)CC3)c3ccccc3N(C)C2=O)c1 (single isomer, unassigned) [20 (enantiomer A)] |  | 
44 | 40 |  | Cc1cccc(NC(=O)NC2N=C(N3CCC(C(F)(F)F)CC3)c3ccccc3N(C)C2=O)c1 (single isomer, unassigned) [20 (enantiomer B)] |  | 
32.9 | 3670 |  | Cc1cccc(NC(=O)NC2N=C(N3CCCCC3(C)C)c3ccccc3N(C)C2=O)c1 (single isomer, unassigned) [22 (enantiomer A)] |  | 
0.927 | 2250 |  | Cc1cccc(NC(=O)NC2N=C(N3[C@H](C)C[C@H](C)C[C@@H]3C)c3ccccc3N(C)C2=O)c1 (single isomer, unassigned) [24 (enantiomer A)] |  | 
50 | 46 |  | Cc1cccc(NC(=O)NC2N=C(N3[C@H](C)C[C@H](C)C[C@@H]3C)c3ccccc3N(C)C2=O)c1 (single isomer, unassigned) [24 (enantiomer B)] |  | 
27.8 | 239 |  | Cc1cccc(NC(=O)NC2N=C(N3CCC(C)(C)CC3)c3ccccc3N(CC(F)(F)F)C2=O)c1 (single isomer, unassigned) [28 (enantiomer A)] |  | 
281 | 3.97 |  | Cc1cccc(NC(=O)NC2N=C(N3CCC(C)(C)CC3)c3ccccc3N(CC(F)(F)F)C2=O)c1 (single isomer, unassigned) [28 (enantiomer B)] |  | 
0.36 | 347 |  | CCN1C(=O)C(NC(=O)Nc2cccc(C)c2)N=C(N2CCC(C)(C)CC2)c2ccccc21 (single isomer, unassigned) [Example 30] |  | 
36.3 |  | 8.8 | Cc1cccc(NC(=O)NC2N=C(N3CC4CCC(C4)C3)c3ccccc3N(C)C2=O)c1 (single isomer, unassigned; (+)) [Example 40, (+)-N-[5-(3-Azabicyclo[3,2,1]octan-3-yl)-2,3-dihydro-1-methyl-2-oxo-1H-1,4-benzodiazepin-3-yl]-N'-[3-methylphenyl]urea Hydrochloride] |  | 
144 |  | 9.7 | Cc1cccc(NC(=O)NC2N=C(N3C[C@H]4CCCC[C@H]4C3)c3ccccc3N(C)C2=O)c1 (single isomer, unassigned; (+)) [Example 59, (+)-N-[2,3-Dihydro-1-methyl-5-(cis-octahydroisoindol-2-yl)-2-oxo-1H-1,4-benzodiazepin-3-yl]N'[-3-methylphenyl]urea hydrochloride] |  | 
35.2 | 114 |  | CCCN1C(=O)C(NC(=O)Nc2cccc(C)c2)N=C(N(C)C2CCCCC2)c2ccccc21 (single isomer, unassigned; (+)) [Example 62, (+) 5-(N-Cyclohexyl-N-methylamino)-2,3-dihydro-2-oxo-1-propyl-1H-1,4-benzodiazepin-3-y1-N'-[3-methylphenyl]urea] |  | 
13.7 | 138 |  | Cc1cccc(NC(=O)NC2N=C(N(C)C3CCCCC3)c3ccccc3N(C)C2=O)c1 (single isomer, unassigned; (+)) [Example 65, (+)5-(N-Cyclohexyl-N-methylamino)-2,3-dihydro-2-oxo-1-methyl-1H-1,4-benzodiazepin-3-yl-N'[3-methylphenyl]urea. Hydrochloride] |  | 

Source: patent US5618812A, “Benzodiazepine derivatives” (Merck Sharp & Dohme, Ltd., priority 1992, dated 1997)
